Values of other authors as cited in paper PMC3461233 (Angewandte Chemie (International ed. in English), 2012).

spontaneous translocation across synthetic membranes: does not translocate spontaneously
Substance: Arg9
